The results in this text go back to US7981903B2, “2-[2-{phenylamino}-1H-pyrrolo[2,3-D]pyrimidin-4-yl)amino] benzamide derivatives as IGF-1R inhibitors for the treatment of cancer” (GlaxoSmithKline LLC, priority 2007, dated 2011).

Each structure is given as a SMILES string. pIC50: −log10 of the molar value.

In assay [1] the target is T1, human IGF1R (hIGF1R) (Homo sapiens, UniProt P08069).
T1 construct: containing amino acid residues 957-1367 of human IGF1R; made in house; host or cells: Sf9 cells (baculovirus)
Description: TR-FRET kinase assay of purified hIGF1R. Particulars: activated hIGF1R 0.5 nM, 10 μM ATP, values given as pIC50 category, read-out: IGF-1R pIC50 (converted). The class given is biochemical. Background: TR-FRET usually uses a lanthanide donor and a delayed reading to cut background.

The target in assay [2] is T2, human IR (hIR) (Homo sapiens, UniProt P06213).
T2 construct: containing amino acid residues 979-1382 of human IR; made in house; host or cells: Sf9 cells (baculovirus), same process as hIGF1R
Description: TR-FRET kinase assay of purified hIR. The class given is biochemical. Particulars: activated hIR 0.5 nM, 10 μM ATP, values given as pIC50 category.

The target of assay [3] is T3, NIH-3T3 cells overexpressing human IR (Homo sapiens, UniProt P06213).
T3 construct: expressed in transfected cells; host or cells: NIH-3T3 (mouse fibroblasts)
Description: IR cellular autophosphorylation (DELFIA). The class given is cell-based. Particulars: 2 h compound, insulin 3 ug/ml for 15 minutes, IC50 category. In a few lines: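 Receptor autophosphorylation measured by DELFIA, capturing IGF-1R or IRβ and detecting with europium anti-pTyr, reported as percent of IGF-1- or insulin-stimulated signal. Compounds (30 uM to 1.5 nM) added 2 h before ligand, then 15 min stimulation (IGF-1 30 ng/ml or insulin 3 ug/ml).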

One may read the pIC50 as the IC50 on a negative log10 scale, so that one unit is a factor of ten. Read a high pIC50 as a low IC50.

T3 sequence (P06213 28-1382): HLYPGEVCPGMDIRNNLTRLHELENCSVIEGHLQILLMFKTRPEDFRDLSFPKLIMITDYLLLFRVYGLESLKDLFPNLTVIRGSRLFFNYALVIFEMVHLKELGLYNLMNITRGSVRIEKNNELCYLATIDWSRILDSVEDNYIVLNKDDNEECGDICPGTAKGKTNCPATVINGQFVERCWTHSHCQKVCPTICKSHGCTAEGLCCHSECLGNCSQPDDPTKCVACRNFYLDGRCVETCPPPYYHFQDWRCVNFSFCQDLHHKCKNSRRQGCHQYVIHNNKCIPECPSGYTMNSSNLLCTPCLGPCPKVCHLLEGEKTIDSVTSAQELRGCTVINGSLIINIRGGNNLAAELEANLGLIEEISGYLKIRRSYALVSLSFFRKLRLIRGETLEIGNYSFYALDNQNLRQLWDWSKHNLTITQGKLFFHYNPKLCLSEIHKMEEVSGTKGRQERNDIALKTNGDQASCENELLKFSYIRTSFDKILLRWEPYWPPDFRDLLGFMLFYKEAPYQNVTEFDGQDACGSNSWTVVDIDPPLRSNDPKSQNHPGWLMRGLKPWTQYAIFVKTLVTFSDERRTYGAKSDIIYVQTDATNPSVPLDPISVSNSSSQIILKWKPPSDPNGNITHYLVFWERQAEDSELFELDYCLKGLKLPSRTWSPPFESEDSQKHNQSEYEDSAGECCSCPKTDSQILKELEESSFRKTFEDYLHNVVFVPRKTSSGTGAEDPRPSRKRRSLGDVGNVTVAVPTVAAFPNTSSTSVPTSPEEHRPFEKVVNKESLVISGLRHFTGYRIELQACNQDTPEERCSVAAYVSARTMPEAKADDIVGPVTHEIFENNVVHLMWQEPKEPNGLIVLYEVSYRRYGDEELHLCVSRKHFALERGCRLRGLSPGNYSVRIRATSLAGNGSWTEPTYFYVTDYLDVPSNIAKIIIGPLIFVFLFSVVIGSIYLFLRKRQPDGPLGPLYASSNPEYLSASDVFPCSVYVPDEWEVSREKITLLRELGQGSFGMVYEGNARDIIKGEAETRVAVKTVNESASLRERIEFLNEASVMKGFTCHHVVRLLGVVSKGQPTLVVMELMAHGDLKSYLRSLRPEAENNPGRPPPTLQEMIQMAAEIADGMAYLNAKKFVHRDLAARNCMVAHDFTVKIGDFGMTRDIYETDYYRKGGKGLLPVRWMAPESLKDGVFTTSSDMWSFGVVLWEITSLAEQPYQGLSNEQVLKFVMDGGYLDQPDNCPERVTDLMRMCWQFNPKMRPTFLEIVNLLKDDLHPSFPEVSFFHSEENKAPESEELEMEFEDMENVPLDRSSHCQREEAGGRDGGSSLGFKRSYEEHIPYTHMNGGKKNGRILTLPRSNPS
T1 sequence (P08069 957-1367): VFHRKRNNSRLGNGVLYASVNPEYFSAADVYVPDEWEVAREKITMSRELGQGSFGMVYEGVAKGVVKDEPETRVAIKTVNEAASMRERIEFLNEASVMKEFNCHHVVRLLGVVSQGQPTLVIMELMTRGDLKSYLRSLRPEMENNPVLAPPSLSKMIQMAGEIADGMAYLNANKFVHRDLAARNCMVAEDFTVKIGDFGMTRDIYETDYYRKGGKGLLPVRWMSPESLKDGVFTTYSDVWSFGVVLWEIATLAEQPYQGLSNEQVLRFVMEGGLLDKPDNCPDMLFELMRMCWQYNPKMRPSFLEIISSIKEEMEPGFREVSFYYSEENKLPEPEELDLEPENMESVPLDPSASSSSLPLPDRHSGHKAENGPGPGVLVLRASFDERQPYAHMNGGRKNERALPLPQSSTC
T2 sequence (P06213 979-1382): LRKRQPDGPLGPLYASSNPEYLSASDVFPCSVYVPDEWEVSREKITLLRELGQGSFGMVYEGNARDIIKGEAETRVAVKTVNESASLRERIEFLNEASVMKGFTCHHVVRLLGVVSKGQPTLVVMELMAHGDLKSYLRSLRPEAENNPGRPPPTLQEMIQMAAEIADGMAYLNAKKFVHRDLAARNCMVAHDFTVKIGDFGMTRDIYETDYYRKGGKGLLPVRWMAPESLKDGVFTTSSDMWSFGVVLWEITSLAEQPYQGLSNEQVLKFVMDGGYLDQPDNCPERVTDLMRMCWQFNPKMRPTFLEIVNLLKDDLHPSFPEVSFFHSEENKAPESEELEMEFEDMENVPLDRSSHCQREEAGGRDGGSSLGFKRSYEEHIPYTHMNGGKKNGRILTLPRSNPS

As to `COc1cc2c(cc1Nc1nc(Nc3cccc(F)c3C(N)=O)c3cc[nH]c3n1)CN(C)CC2` [Example 121, 2-fluoro-6-[(2-{[2-methyl-6-(methyloxy)-1,2,3,4-tetrahydro-7-isoquinolinyl]amino}-1H-pyrrolo[2,3-d]pyrimidin-4-yl)amino]benzamide], the IC50 in assay [1] was 5.01 to 200 nM. The pIC50 in assay [2] is 8.40 to 8.90; in assay [3], 6.30 to 7.00.
On to `CCCN1CCC(N2CCc3cc(OC)c(Nc4nc(Nc5cccc(F)c5C(N)=O)c5cc[nH]c5n4)cc3C2)CC1` [Example 122, 2-fluoro-6-[(2-{[6-(methyloxy)-2-(1-propyl-4-piperidinyl)-1,2,3,4-tetrahydro-7-isoquinolinyl]amino}-1H-pyrrolo[2,3-d]pyrimidin-4-yl)amino]benzamide], for which, in assay [1], the IC50 was 5.01 to 200 nM. The pIC50 in assay [2] was 8.40 to 8.90; in assay [3] it was more than 7.00.
The like results for `COc1cc2c(cc1Nc1nc(Nc3cc4ccccc4cc3C(N)=O)c3cc[nH]c3n1)N(C(=O)CN(C)C)CC2` [Example 124, 3-[(2-{[1-(N,N-dimethylglycyl)-5-(methyloxy)-2,3-dihydro-1H-indol-6-yl]amino}-1H-pyrrolo[2,3-d]pyrimidin-4-yl)amino]-2-naphthalenecarboxamide] were, in that order, 0.251 to 1 nM, 9.00 to 9.60 and 6.30 to 7.00.
Consider `CNC(=O)c1cc2ccccc2cc1Nc1nc(Nc2cc3c(cc2OC)CCN3C(=O)CN(C)C)nc2[nH]ccc12` [Example 125, 3-[(2-{[1-(N,N-dimethylglycyl)-5-(methyloxy)-2,3-dihydro-1H-indol-6-yl]amino}-1H-pyrrolo[2,3-d]pyrimidin-4-yl)amino]-N-methyl-2-naphthalenecarboxamide], for which the IC50 in assay [1] was 0.251 to 1 nM. The pIC50 in assay [2] is 9.00 to 9.60; in assay [3], 6.30 to 7.00.
Taken in the same sequence, the figures for `CCN(C)CC(=O)N1CCCc2cc(OC)c(Nc3nc(Nc4cccc(F)c4C(=O)NC)c4cc[nH]c4n3)cc21` [Example 132, 2-[(2{-[1-(N-ethyl-N-methylglycyl)-6-(methyloxy)-1,2,3,4-tetrahydro-7-quinolinyl]amino}-1H-pyrrolo[2,3-d]pyrimidin-4-yl)amino]-6-fluoro-N-methylbenzamide] were 5.01 to 200 nM, 8.40 to 8.90 and more than 7.00.
Taken in the same sequence, the figures for `COc1cc2c(cc1Nc1nc(Nc3cccc(F)c3C(N)=O)c3cc[nH]c3n1)N(C(C)=O)CC2` [Example 134, 2-[(2-{[1-acetyl-5-(methyloxy)-2,3-dihydro-1H-indol-6-yl]amino}-1H-pyrrolo[2,3-d]pyrimidin-4-yl)amino]-6-fluorobenzamide] were 5.01 to 200 nM, 8.40 to 8.90 and more than 7.00.
Taken in the same sequence, the figures for `CNC(=O)c1c(F)cccc1Nc1nc(Nc2cc3c(cc2OC)CCN3C(C)=O)nc2[nH]ccc12` [Example 135, 2-[(2-{[1-acetyl-5-(methyloxy)-2,3-dihydro-1H-indol-6-yl]amino}-1H-pyrrolo[2,3-d]pyrimidin-4-yl)amino]-6-fluoro-N-methylbenzamide] were 5.01 to 200 nM, 6.80 to 8.30 and less than 6.30.
On to `CCN(CC)CC(=O)N1CCc2cc(OC)c(Nc3nc(Nc4cccc(F)c4C(=O)NC)c4cc[nH]c4n3)cc21` [Example 137, 2-[(2-{[1-(N,N-diethylglycyl)-5-(methyloxy)-2,3-dihydro-1H-indol-6-yl]amino}-1H-pyrrolo[2,3-d]pyrimidin-4-yl)amino]-6-fluoro-N-methylbenzamide], for which the IC50 in assay [1] is 5.01 to 200 nM. The pIC50 in assay [2] is 6.80 to 8.30; in assay [3] it was 6.30 to 7.00.
Taken in the same sequence, the figures for `COc1cc2c(cc1Nc1nc(Nc3cccc(F)c3C(N)=O)c3cc[nH]c3n1)NCC2` [Example 140, 2-fluoro-6-[(2-{[5-(methyloxy)-2,3-dihydro-1H-indol-6-yl]amino}-1H-pyrrolo[2,3-d]pyrimidin-4-yl)amino]benzamide] were 5.01 to 200 nM, 6.80 to 8.30 and less than 6.30.
Taken in the same sequence, the figures for `COc1cc2c(cc1Nc1nc(Nc3cccc(F)c3C(N)=O)c3cc[nH]c3n1)N(C(=O)CN1CCC1)CC2` [Example 143, 2-[(2-{[1-(1-azetidinylacetyl)-5-(methyloxy)-2,3-dihydro-1H-indol-6-yl]amino}-1H-pyrrolo[2,3-d]pyrimidin-4-yl)amino]-6-fluorobenzamide] were 0.251 to 1 nM, 9.00 to 9.60 and 6.30 to 7.00.
Taken in the same sequence, the figures for `COc1cc2c(cc1Nc1nc(Nc3cccc(F)c3C(N)=O)c3cc[nH]c3n1)N(C(=O)CN(C)OC)CC2` [Example 144, 2-fluoro-6-[(2-{[1-[N-methyl-N-(methyloxy)glycyl]-5-(methyloxy)-2,3-dihydro-1H-indol-6-yl]amino}-1H-pyrrolo[2,3-d]pyrimidin-4-yl)amino]benzamide] were 5.01 to 200 nM, 6.80 to 8.30 and less than 6.30.
In the case of `COc1cc2c(cc1Nc1nc(Nc3cccc(F)c3C(N)=O)c3cc[nH]c3n1)N(C(=O)Cn1ccnc1)CC2` [Example 145, 2-fluoro-6-[(2-{[1-(1H-imidazol-1-ylacetyl)-5-(methyloxy)-2,3-dihydro-1H-indol-6-yl]amino}-1H-pyrrolo[2,3-d]pyrimidin-4-yl)amino]benzamide], the IC50 in assay [1] was 5.01 to 200 nM. For the same molecule, the pIC50 was 6.80 to 8.30 in assay [2] and less than 6.30 in assay [3].
Take `COc1cc2c(cc1Nc1nc(Nc3cccc(F)c3C(N)=O)c3cc[nH]c3n1)N(C(=O)N(C)C)CC2` [Example 146, 6-[(4-{[2-(aminocarbonyl)-3-fluorophenyl]amino}-1H-pyrrolo[2,3-d]pyrimidin-2-yl)amino]-N,N-dimethyl-5-(methyloxy)-2,3-dihydro-1H-indole-1-carboxamide]: the IC50 in assay [1] is 5.01 to 200 nM. In addition, the pIC50 in assay [2] was 6.80 to 8.30; in assay [3] it was less than 6.30.
The like results for `COc1cc2c(cc1Nc1nc(Nc3cccc(F)c3C(N)=O)c3cc[nH]c3n1)N(C(=O)[C@@H]1CCCN1C)CC2` [Example 147, 2-fluoro-6-[(2-{[5-(methyloxy)-1-(1-methyl-L-prolyl)-2,3-dihydro-1H-indol-6-yl]amino}-1H-pyrrolo[2,3-d]pyrimidin-4-yl)amino]benzamide] were, in that order, 5.01 to 200 nM, 8.40 to 8.90 and 6.30 to 7.00.
The like results for `COCC(=O)N1CCc2cc(OC)c(Nc3nc(Nc4cccc(F)c4C(N)=O)c4cc[nH]c4n3)cc21` [Example 149, 2-fluoro-6-{[2-({5-(methyloxy)-1-[(methyloxy)acetyl]-2,3-dihydro-1H-indol-6-yl}amino)-1H-pyrrolo[2,3-d]pyrimidin-4-yl]amino}benzamide] were, in that order, 5.01 to 200 nM, 6.80 to 8.30 and 6.30 to 7.00.
For the molecule `CNC(=O)c1c(F)cccc1Nc1nc(Nc2cc3c(cc2OC)CCN3C(=O)COC)nc2[nH]ccc12` [Example 150, 2-fluoro-N-methyl-6-{[2-({5-(methyloxy)-1-[(methyloxy)acetyl]-2,3-dihydro-1H-indol-6-yl}amino)-1H-pyrrolo[2,3-d]pyrimidin-4-yl]amino}benzamide], the IC50 in assay [1] was 5.01 to 200 nM. In addition, the pIC50 in assay [2] was 6.80 to 8.30; in assay [3], less than 6.30.
The like results for `CCNC(=O)c1c(F)cc(F)cc1Nc1nc(Nc2cc3c(cc2OC)CCN3C(=O)CN(C)C)nc2[nH]ccc12` [Example 151, 2-[(2-{[1-(N,N-dimethylglycyl)-5-(methyloxy)-2,3-dihydro-1H-indol-6-yl]amino}-1H-pyrrolo[2,3-d]pyrimidin-4-yl)amino]-N-ethyl-4,6-difluorobenzamide] were, in that order, 0.251 to 1 nM, 9.00 to 9.60 and 6.30 to 7.00.
Taken in the same sequence, the figures for `CCCNC(=O)c1c(F)cc(F)cc1Nc1nc(Nc2cc3c(cc2OC)CCN3C(=O)CN(C)C)nc2[nH]ccc12` [Example 152, 2-[(2-{[1-(N,N-dimethylglycyl)-5-(methyloxy)-2,3-dihydro-1H-indol-6-yl]amino}-1H-pyrrolo[2,3-d]pyrimidin-4-yl)amino]-4,6-difluoro-N-propylbenzamide] were 0.251 to 1 nM, 8.40 to 8.90 and 6.30 to 7.00.
The like results for `COc1cc2c(cc1Nc1nc(Nc3ccc(F)c(F)c3C(=O)NC(C)C)c3cc[nH]c3n1)N(C(=O)CN(C)C)CC2` [Example 161, 6-[(2-{[1-(N,N-dimethylglycyl)-5-(methyloxy)-2,3-dihydro-1H-indol-6-yl]amino}-1H-pyrrolo[2,3-d]pyrimidin-4-yl)amino]-2,3-difluoro-N-(1-methylethyl)benzamide] were, in that order, 5.01 to 200 nM, 6.80 to 8.30 and less than 6.30.
`CCN(C)CC(=O)N1CCc2cc(OC)c(Nc3nc(Nc4cccc(F)c4C(=O)NC)c4cc[nH]c4n3)cc21` [Example 165, 2-[(2-{[1-(N-ethyl-N-methylglycyl)-5-(methyloxy)-2,3-dihydro-1H-indol-6-yl]amino}-1H-pyrrolo[2,3-d]pyrimidin-4-yl)amino]-6-fluoro-N-methylbenzamide]: the IC50 in assay [1] was 5.01 to 200 nM. In addition, the results for the negative-log IC50 (pIC50) in assay [2] and in assay [3] were 6.80 to 8.30 and 6.30 to 7.00, respectively.
Taken in the same sequence, the figures for `CCCN(C)CC(=O)N1CCc2cc(OC)c(Nc3nc(Nc4cccc(F)c4C(N)=O)c4cc[nH]c4n3)cc21` [Example 168, 2-fluoro-6-[(2-{[5-(methyloxy)-1-(N-methyl-N-propylglycyl)-2,3-dihydro-1H-indol-6-yl]amino}-1H-pyrrolo[2,3-d]pyrimidin-4-yl)amino]benzamide] were 0.251 to 1 nM, 9.00 to 9.60 and more than 7.00.
